ChEMBL document CHEMBL5291721, “A preclinical secondary pharmacology resource illuminates target-adverse drug reaction associations of marketed drugs” (Nat Commun, 2023)

Experiments:
[1] = molecular target: T1, Adenosine receptor A3 (Homo sapiens, UniProt P0DMS8)
T1 sequence (P0DMS8 whole entry): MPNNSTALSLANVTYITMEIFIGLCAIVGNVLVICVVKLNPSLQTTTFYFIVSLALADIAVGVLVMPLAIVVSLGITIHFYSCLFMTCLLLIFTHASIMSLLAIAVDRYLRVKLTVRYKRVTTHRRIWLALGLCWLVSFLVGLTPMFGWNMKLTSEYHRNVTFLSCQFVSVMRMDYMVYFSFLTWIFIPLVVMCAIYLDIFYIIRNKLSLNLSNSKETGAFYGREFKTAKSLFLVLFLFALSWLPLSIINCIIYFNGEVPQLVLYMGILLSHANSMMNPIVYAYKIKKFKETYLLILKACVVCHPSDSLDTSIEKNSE

[2] = molecular target: T2, Muscarinic acetylcholine receptor M2 (Homo sapiens, UniProt P08172); type: functional, cell-based
T2 sequence (P08172 whole entry): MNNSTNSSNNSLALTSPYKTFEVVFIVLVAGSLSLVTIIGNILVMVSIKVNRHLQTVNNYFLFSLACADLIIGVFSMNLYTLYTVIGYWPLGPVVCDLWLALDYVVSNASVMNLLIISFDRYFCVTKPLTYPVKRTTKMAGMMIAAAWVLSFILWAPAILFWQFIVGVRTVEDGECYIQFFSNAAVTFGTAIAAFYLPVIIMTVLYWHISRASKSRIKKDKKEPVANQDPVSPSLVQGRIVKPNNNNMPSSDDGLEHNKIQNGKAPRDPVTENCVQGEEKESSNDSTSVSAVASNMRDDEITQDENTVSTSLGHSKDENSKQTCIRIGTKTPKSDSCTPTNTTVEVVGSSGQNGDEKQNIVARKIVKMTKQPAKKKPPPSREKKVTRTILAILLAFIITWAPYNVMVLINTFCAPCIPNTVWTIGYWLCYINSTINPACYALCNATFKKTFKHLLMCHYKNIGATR

[3] = molecular target: T2, Muscarinic acetylcholine receptor M2; type: functional, cell-based; remark: listed apart in the source
[4] = molecular target: Muscarinic acetylcholine receptor M3 (Homo sapiens, UniProt P20309)
[5] = molecular target: Cannabinoid receptor 1 (Homo sapiens, UniProt P21554); type: functional, cell-based
[6] = molecular target: T3, Gamma-aminobutyric acid receptor subunit alpha-1 (Rattus norvegicus, UniProt P62813)
[7] = molecular target: T3, Gamma-aminobutyric acid receptor subunit alpha-1; type: functional
[8] = molecular target: T4, Neuropeptide Y receptor type 1 (Homo sapiens, UniProt P25929)
T4 sequence (P25929 whole entry): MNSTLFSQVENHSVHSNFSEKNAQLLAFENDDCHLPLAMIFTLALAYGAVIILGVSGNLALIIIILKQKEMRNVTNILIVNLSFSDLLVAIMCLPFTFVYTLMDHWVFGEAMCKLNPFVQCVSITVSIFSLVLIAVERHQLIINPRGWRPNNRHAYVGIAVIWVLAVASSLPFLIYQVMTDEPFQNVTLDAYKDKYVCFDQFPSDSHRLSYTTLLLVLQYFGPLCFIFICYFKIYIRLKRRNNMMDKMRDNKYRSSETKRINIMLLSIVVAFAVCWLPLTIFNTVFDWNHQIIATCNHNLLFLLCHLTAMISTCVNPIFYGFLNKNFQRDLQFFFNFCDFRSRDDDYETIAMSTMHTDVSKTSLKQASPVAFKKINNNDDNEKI

[9] = molecular target: T5, Glucocorticoid receptor (Homo sapiens, UniProt P04150)
T5 sequence (P04150 whole entry): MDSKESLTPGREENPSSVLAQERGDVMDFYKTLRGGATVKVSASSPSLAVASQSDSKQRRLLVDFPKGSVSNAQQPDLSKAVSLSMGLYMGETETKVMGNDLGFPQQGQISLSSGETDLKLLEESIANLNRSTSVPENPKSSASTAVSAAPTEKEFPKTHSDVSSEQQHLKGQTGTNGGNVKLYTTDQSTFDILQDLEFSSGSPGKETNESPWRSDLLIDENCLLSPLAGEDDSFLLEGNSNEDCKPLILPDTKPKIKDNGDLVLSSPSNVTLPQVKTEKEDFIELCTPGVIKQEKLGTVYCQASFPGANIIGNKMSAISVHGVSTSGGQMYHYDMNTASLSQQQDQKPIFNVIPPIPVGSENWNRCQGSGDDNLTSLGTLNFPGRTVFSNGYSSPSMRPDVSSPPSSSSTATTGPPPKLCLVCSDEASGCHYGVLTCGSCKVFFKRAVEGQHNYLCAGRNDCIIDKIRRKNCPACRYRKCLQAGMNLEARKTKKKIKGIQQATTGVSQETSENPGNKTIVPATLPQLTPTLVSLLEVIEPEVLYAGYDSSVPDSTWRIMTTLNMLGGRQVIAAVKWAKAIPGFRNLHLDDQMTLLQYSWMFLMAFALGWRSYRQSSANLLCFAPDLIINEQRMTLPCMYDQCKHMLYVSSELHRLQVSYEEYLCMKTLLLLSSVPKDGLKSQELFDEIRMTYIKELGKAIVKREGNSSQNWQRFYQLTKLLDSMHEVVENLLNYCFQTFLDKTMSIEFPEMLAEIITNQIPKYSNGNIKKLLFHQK

[10] = molecular target: Delta-type opioid receptor (Homo sapiens, UniProt P41143)
[11] = molecular target: 3',5'-cyclic-AMP phosphodiesterase 4D (Homo sapiens, UniProt Q08499); type: functional
[12] = molecular target: T6, Thromboxane A2 receptor (Homo sapiens, UniProt P21731)
T6 sequence (P21731 whole entry): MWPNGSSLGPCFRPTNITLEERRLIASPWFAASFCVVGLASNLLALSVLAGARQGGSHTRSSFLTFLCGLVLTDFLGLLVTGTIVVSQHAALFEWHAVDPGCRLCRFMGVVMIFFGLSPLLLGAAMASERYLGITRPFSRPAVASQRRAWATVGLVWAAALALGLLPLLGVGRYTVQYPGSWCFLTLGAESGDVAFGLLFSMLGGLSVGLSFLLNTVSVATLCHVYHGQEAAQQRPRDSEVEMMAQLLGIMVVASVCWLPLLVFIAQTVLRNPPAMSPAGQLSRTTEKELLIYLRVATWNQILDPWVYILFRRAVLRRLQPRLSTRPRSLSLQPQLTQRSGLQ

[13] = molecular target: Sodium-dependent dopamine transporter (Homo sapiens, UniProt Q01959)
[14] = molecular target: Sodium-dependent serotonin transporter (Homo sapiens, UniProt P31645)
Further: assay procedure not described here.

T3 sequence (P62813 whole entry): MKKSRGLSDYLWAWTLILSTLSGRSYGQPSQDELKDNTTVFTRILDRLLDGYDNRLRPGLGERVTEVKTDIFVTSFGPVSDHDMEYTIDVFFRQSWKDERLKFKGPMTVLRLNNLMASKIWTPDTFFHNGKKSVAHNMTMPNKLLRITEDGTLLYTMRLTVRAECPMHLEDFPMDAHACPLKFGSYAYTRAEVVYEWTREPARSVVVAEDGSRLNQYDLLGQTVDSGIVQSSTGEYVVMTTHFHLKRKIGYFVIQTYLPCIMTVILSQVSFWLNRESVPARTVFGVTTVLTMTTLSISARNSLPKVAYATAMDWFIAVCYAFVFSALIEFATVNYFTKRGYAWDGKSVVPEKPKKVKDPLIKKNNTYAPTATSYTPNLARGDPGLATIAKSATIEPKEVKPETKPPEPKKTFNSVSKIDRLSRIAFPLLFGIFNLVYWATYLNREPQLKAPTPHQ
Sodium-dependent serotonin transporter, sequence (P31645 whole entry): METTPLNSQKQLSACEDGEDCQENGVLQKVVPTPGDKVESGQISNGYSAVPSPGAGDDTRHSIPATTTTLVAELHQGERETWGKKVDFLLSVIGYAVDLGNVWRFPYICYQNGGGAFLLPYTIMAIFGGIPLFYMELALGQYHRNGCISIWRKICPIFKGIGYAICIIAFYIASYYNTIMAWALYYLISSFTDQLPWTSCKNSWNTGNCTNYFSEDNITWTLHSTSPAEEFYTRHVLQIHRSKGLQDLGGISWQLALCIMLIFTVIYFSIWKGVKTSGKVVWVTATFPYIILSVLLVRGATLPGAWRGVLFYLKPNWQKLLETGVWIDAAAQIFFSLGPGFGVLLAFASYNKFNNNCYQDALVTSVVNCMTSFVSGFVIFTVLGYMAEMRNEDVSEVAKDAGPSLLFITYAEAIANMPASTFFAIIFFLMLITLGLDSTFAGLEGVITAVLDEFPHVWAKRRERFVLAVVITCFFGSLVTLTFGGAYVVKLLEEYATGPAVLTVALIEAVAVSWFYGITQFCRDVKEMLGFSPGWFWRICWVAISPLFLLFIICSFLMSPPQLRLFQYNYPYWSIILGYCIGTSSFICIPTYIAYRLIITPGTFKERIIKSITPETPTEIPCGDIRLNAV
Delta-type opioid receptor, sequence (P41143 whole entry): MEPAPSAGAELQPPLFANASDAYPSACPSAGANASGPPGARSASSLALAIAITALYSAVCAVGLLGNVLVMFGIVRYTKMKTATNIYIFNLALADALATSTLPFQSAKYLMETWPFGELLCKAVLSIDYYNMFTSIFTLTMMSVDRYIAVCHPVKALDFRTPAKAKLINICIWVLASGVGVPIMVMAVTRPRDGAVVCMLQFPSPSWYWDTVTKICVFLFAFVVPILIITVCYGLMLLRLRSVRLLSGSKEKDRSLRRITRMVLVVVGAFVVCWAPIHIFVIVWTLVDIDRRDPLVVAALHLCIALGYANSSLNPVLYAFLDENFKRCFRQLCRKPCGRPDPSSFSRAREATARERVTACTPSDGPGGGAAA
3',5'-cyclic-AMP phosphodiesterase 4D, sequence (Q08499 whole entry): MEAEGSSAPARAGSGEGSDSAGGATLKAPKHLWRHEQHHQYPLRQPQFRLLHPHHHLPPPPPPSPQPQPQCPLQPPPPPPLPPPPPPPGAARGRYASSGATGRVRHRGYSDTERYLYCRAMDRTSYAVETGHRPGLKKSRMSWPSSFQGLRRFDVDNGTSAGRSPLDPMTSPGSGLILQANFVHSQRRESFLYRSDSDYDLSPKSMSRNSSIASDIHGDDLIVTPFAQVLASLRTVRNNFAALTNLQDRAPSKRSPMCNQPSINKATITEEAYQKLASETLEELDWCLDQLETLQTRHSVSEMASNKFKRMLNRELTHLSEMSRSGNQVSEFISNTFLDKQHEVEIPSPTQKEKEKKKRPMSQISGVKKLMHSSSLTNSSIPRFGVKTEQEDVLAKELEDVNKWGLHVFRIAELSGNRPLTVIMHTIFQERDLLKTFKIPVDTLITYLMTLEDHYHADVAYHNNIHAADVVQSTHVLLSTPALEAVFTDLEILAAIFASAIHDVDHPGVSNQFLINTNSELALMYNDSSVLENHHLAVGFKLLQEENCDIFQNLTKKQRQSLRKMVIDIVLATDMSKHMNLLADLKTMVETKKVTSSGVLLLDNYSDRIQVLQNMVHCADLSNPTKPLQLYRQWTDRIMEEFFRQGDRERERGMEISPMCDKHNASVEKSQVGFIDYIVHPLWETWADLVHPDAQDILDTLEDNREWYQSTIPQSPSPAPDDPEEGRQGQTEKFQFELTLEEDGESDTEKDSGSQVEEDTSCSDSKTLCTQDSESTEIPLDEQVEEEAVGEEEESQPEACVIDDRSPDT
Muscarinic acetylcholine receptor M3, sequence (P20309 whole entry): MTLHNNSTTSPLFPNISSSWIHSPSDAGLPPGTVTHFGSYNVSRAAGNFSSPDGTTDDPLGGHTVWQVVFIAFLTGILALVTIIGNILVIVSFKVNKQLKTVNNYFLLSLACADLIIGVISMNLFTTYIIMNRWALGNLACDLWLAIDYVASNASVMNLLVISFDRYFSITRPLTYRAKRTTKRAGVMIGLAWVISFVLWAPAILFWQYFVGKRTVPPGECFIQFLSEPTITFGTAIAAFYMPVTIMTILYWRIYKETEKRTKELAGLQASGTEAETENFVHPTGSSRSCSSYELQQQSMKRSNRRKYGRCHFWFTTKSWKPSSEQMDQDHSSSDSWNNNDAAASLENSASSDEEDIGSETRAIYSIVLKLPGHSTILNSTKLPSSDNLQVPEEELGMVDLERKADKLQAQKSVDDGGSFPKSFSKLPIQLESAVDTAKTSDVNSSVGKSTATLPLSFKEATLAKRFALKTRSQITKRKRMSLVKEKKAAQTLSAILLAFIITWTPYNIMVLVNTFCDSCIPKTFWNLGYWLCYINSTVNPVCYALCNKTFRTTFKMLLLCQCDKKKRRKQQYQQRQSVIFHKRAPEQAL
Cannabinoid receptor 1, sequence (P21554 whole entry): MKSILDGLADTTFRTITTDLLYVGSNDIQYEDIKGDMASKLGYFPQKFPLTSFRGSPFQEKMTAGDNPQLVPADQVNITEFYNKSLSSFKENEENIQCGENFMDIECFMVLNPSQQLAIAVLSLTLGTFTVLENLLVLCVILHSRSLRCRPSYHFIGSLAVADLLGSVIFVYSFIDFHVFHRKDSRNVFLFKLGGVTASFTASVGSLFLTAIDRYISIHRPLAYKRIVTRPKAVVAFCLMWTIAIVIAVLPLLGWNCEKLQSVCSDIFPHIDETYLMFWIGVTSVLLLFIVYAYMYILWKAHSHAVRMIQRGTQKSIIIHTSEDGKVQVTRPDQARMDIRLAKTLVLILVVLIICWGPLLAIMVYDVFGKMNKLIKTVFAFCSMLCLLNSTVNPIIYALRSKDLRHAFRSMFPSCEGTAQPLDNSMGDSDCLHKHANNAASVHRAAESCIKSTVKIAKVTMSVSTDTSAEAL
Sodium-dependent dopamine transporter, sequence (Q01959 whole entry): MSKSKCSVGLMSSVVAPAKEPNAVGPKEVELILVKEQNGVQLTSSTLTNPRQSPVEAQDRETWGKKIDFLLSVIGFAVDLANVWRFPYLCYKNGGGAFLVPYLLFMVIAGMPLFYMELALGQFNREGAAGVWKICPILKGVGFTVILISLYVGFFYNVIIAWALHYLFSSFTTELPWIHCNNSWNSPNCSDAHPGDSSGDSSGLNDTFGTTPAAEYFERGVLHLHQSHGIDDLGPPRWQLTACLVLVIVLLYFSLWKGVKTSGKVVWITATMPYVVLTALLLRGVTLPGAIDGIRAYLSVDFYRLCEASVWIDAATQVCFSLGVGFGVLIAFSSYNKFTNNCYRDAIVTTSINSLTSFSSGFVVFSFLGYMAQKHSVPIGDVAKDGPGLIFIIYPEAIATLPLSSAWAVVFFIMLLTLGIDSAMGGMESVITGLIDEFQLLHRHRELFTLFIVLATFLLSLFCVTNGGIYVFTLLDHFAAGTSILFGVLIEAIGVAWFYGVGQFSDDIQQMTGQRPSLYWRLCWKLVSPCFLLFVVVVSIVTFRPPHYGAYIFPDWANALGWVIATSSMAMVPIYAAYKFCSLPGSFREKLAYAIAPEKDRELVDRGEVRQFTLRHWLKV

Compound	AC50 [1]	AC50 [2]	AC50 [3]	AC50 [4]	AC50 [5]	AC50 [6]	AC50 [7]	AC50 [8]	AC50 [9]	AC50 [10]	AC50 [11]	AC50 [12]	AC50 [13]	AC50 [14]
O=C(C[S+]([O-])C(c1ccccc1)c1ccccc1)NO (configuration not stated)	> 30 µM	> 30 µM	> 30 µM	> 30 µM	> 30 µM	> 30 µM	> 30 µM	> 30 µM	> 30 µM	> 30 µM	8.9 µM	> 30 µM	9.4 µM	> 30 µM
Nc1ncnc2c1ncn2[C@@H]1O[C@H](COP(=O)(O)O)[C@@H](O)[C@H]1O [ADENOSINE PHOSPHATE]	> 30 µM	> 30 µM	> 30 µM	> 30 µM	> 30 µM	> 30 µM	> 30 µM	> 30 µM	> 30 µM	> 30 µM	14 µM	> 30 µM	> 30 µM	> 30 µM
COc1ccc2cccc(CCNC(C)=O)c2c1 [AGOMELATINE]	> 30 µM	> 30 µM	> 30 µM	> 10 µM	> 30 µM	> 10 µM	> 10 µM	> 30 µM	> 30 µM	> 30 µM	> 30 µM	> 30 µM	> 10 µM	> 10 µM
CN1CCc2cccc3c2[C@H]1Cc1ccc(O)c(O)c1-3 [APOMORPHINE]	0.67 µM	> 10 µM	> 10 µM	> 30 µM	> 30 µM	> 10 µM	> 10 µM	> 20 µM	> 30 µM	> 30 µM	2.2 µM	> 30 µM	> 30 µM	21.9 µM
CCC(C(=O)O)c1ccc(CC(C)C)cc1 (configuration not stated) [BUTIBUFEN]	> 30 µM	> 30 µM	> 30 µM	> 30 µM	> 30 µM	> 30 µM	> 30 µM	> 30 µM	> 30 µM	> 30 µM	> 30 µM	> 30 µM	> 30 µM	> 30 µM
CN(C)C(=O)OC1N=C(c2ccccc2)c2cc(Cl)ccc2N(C)C1=O (configuration not stated) [CAMAZEPAM]	> 30 µM	> 10 µM	> 10 µM	> 10 µM	> 30 µM	> 10 µM	0.96 µM	> 30 µM	> 30 µM	> 10 µM	4.3 µM	> 30 µM	> 10 µM	> 10 µM
CCOC(=O)[C@H](CCc1ccccc1)N[C@H]1CCCN2CCC[C@@H](C(=O)O)N2C1=O [CILAZAPRIL]	> 30 µM	> 30 µM	> 30 µM	> 30 µM	> 30 µM	> 30 µM	> 30 µM	> 30 µM	> 30 µM	> 30 µM	> 30 µM	> 30 µM	> 30 µM	> 30 µM
CCOc1cc(N)c([N+](=O)[O-])cc1C(=O)NC1CCN(CC2CC=CCC2)CC1 (configuration not stated) [CINITAPRIDE]	> 30 µM	> 30 µM	> 30 µM	13 µM	> 30 µM	> 30 µM	14 µM	> 30 µM	> 30 µM	> 30 µM	> 30 µM	> 30 µM	20 µM	14 µM
CCCCOc1cc(C(=O)NCCN(CC)CC)c2ccccc2n1 [DIBUCAINE]	> 30 µM	> 10 µM	> 10 µM	> 30 µM	> 30 µM	> 30 µM	> 30 µM	> 30 µM	> 10 µM	> 30 µM	> 30 µM	> 30 µM	> 10 µM	> 10 µM
CCC1(C2=CCCCCC2)C(=O)NC(=O)NC1=O [HEPTABARBITAL]	> 10 µM	> 10 µM	> 10 µM	> 30 µM	> 30 µM	> 10 µM	> 10 µM	> 10 µM	> 10 µM	> 30 µM	> 30 µM	> 10 µM	> 10 µM	> 10 µM
CCCCCN(C)CCC(O)(P(=O)(O)O)P(=O)(O)O [IBANDRONIC ACID]	> 30 µM	> 30 µM	> 30 µM	> 30 µM	> 30 µM	> 30 µM	> 30 µM	> 30 µM	> 30 µM	> 30 µM	> 30 µM	> 30 µM	> 30 µM	> 30 µM
C1=Cc2cccc(OCC3CNCCO3)c2C1 (configuration not stated) [INDELOXAZINE]	> 30 µM	> 30 µM	> 30 µM	> 30 µM	> 30 µM	> 30 µM	> 30 µM	> 30 µM	> 30 µM	22 µM	> 30 µM	> 30 µM	12 µM	0.047 µM
COc1ccc(C(=O)NCc2ccc(OCCN(C)C)cc2)cc1OC [ITOPRIDE]	> 30 µM	> 30 µM	> 30 µM	> 30 µM	> 30 µM	> 30 µM	> 30 µM	> 30 µM	> 30 µM	> 30 µM	> 30 µM	> 30 µM	> 30 µM	> 30 µM
